Consider 27 compounds from patent US20250195530A1, “POLQ INHIBITORS” (ASTRAZENECA AB, priority 2022, published 2025).

The test system of this test is DLD-1 BRCA2−/− cells. In words: Homologous recombination synthetic lethal inhibition of proliferation, DLD-1 BRCA2-/- (Cell Titre Glo 3D). In kind it is cell-based. Conditions: for IC50: Homo sapiens; for POLQ PD Prolif Lumin BRCA2 −/− mean pIC50: DLD-1 BRCA2 −/−. The procedure, abridged:
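Luminescent Cell Titre Glo 3D readout, taken on day 12 for homologous-recombination-deficient DLD-1 BRCA2−/− and day 7 for the wild-type control, after compound refresh on day 6. Compounds spanned 10 μM to 0.51 nM in three-fold steps; IC50 defined as 50% reduction of average maximum signal.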

Setting [1] is: DLD-1, first proliferation column (c5), taken as DLD-1 BRCA2-/-, read-out: POLQ PD Prolif Lumin (converted).
The mark [2] stands for this setting: DLD-1, DLD-1 BRCA2 −/− cells, mean, read-out: POLQ PD Prolif Lumin BRCA2 −/− mean pIC50 (converted).
Setting [3] is: DLD-1, first proliferation column (c5), DLD-1 BRCA2-/-, read-out: POLQ PD Prolif Lumin (converted).
Where [4] appears, read: DLD-1, DLD-1 BRCA2 −/−, mean, read-out: POLQ PD Prolif Lumin BRCA2 −/− mean pIC50 (converted).
Where [5] appears, read: DLD-1, proliferation, luminescence, taken as DLD-1 BRCA2-/-, read-out: POLQ PD Prolif Lumin (converted).
Where [6] appears, read: DLD-1, DLD-1 BRCA2-/- proliferation, column head only partly shown, read-out: POLQ PD Prolif Lumin (converted).

Where two headings read alike, the source gives them in different places. Some results are limits rather than exact numbers.

As for `CNC(=O)C1CN(c2ccc(-c3nc4c(OC5(C)CC5)ncnc4n3Cc3cc(C)ccn3)c(Cl)c2)C1` [Example T341, 1-(3-chloro-4-(6-(1-methylcyclopropoxy)-9-((4-methylpyridin-2-yl)methyl)-9H-purin-8-yl)phenyl)-N-methylazetidine-3-carboxamide], the IC50 under setting [1] is 316 nM. Consider `Cc1cc(Cn2c(-c3ccc(CC(N)=O)cc3Cl)nc3c(OC4(C)CC4)ncnc32)ncn1` [Example T19, 2-(3-chloro-4-(6-(1-methylcyclopropoxy)-9-((6-methylpyrimidin-4-yl)methyl)-9H-purin-8-yl)phenyl)acetamide], for which, under setting [2], the IC50 was > 10000 nM.

Consider `Cc1ccnc(Cn2c(-c3ccc(OCCN4CCNC(=O)C4)cc3Cl)nc3c(OC4(C)CC4)ncnc32)c1` [Example T499, 4-(2-(3-chloro-4-(6-(1-methylcyclopropoxy)-9-((4-methylpyridin-2-yl)methyl)-9H-purin-8-yl)phenoxy)ethyl)piperazin-2-one], for which, under setting [3], the IC50 is 316 nM. For the compound `Cc1ccnc(Cn2c(-c3ccc(OCC(=O)N(C)CCO)cc3Cl)nc3c(OC4(C)CC4)ncnc32)c1` [Example T374, 2-(3-chloro-4-(6-(1-methylcyclopropoxy)-9-((4-methylpyridin-2-yl)methyl)-9H-purin-8-yl)phenoxy)-N-(2-hydroxyethyl)-N-methylacetamide], under setting [1], the IC50 is 1260 nM.

As to `CC(CCOc1ccc(-c2nc3c(OC4(C)CC4)ncnc3n2Cc2ccccc2F)c(Cl)c1)C(=O)O` (racemic) [Example U5, 4-(3-chloro-4-(9-(2-fluorobenzyl)-6-(1-methylcyclopropoxy)-9H-purin-8-yl)phenoxy)-2-methylbutanoic acid], the IC50 under setting [4] was 316 nM. `CC1(Oc2ncnc3c2nc(-c2ccc(O[C@H]4CC[C@H](C(=O)O)CC4)cc2Cl)n3Cc2ccccc2C#N)CC1` [Example U19, (1r,4r)-4-(3-chloro-4-(9-(2-cyanobenzyl)-6-(1-methylcyclopropoxy)-9H-purin-8-yl)phenoxy)cyclohexane-1-carboxylic acid]: the “POLQ PD Prolif Lumin BRCA2 −/− mean pIC50” value (mean) came out at 6.6. Take `Cc1ccnc(Cn2c(-c3ccc(C(=O)NCC(F)F)cc3Cl)nc3c(OC4(C)CC4)ncnc32)c1` [Example T93, 3-chloro-N-(2,2-difluoroethyl)-4-(6-(1-methylcyclopropoxy)-9-((4-methylpyridin-2-yl)methyl)-9H-purin-8-yl)benzamide]: the IC50 under setting [2] was 316 nM.

In the case of `Cc1ccnc(Cn2c(-c3ccc(OCCN4CCCC4=O)cc3Cl)nc3c(OC4(C)CC4)ncnc32)c1` [Example T469, 1-(2-(3-chloro-4-(6-(1-methylcyclopropoxy)-9-((4-methylpyridin-2-yl)methyl)-9H-purin-8-yl)phenoxy)ethyl)pyrrolidin-2-one], the IC50 under setting [5] was 158 nM. As to `Cc1ccnc(Cn2c(-c3ccc(OCC(=O)NC4CC(F)C4)cc3Cl)nc3c(OC4(C)CC4)ncnc32)c1` (stereo not drawn) [Example T421, 2-(3-chloro-4-(6-(1-methylcyclopropoxy)-9-((4-methylpyridin-2-yl)methyl)-9H-purin-8-yl)phenoxy)-N-(3-fluorocyclobutyl)acetamide], the IC50 under setting [5] was 251 nM. Regarding `Cc1ccnc(Cn2c(-c3ccc(OCC(=O)NC4(C)COC4)cc3Cl)nc3c(OC4(C)CC4)ncnc32)c1` [Example T476, 2-(3-chloro-4-(6-(1-methylcyclopropoxy)-9-((4-methylpyridin-2-yl)methyl)-9H-purin-8-yl)phenoxy)-N-(3-methyloxetan-3-yl)acetamide], the IC50 under setting [5] was 251 nM. For the compound `Cc1cccc(Cn2c(-c3ccc(CC(N)=O)cc3Cl)nc3c(OC4(C)CC4)ncnc32)n1` [Example T59, 2-(3-chloro-4-(6-(1-methylcyclopropoxy)-9-((6-methylpyridin-2-yl)methyl)-9H-purin-8-yl)phenyl)acetamide], the IC50 under setting [2] is 2510 nM. Consider `CC1(Oc2ncnc3c2nc(-c2cccc(OCCOCC(=O)O)c2Cl)n3Cc2cccc(Cl)c2)CC1` [Example T162, 2-(2-(2-chloro-3-(9-(3-chlorobenzyl)-6-(1-methylcyclopropoxy)-9H-purin-8-yl)phenoxy)ethoxy)acetic acid], for which the IC50 under setting [3] is 126 nM. Turning to `CC1(Oc2ncnc3c2nc(-c2ccc(OCCOCCC(=O)O)cc2Cl)n3Cc2cccc(Cl)c2)CC1` [Example T303, 3-(2-(3-chloro-4-(9-(3-chlorobenzyl)-6-(1-methylcyclopropoxy)-9H-purin-8-yl)phenoxy)ethoxy)propanoic acid], the IC50 under setting [1] was 126 nM.

Turning to `CC(CCCc1ccc(-c2nc3c(OC4(C)CC4)ncnc3n2Cc2ccccc2C#N)c(Cl)c1)C(=O)O` (racemic) [Example U12, 5-(3-chloro-4-(9-(2-cyanobenzyl)-6-(1-methylcyclopropoxy)-9H-purin-8-yl)phenyl)-2-methylpentanoic acid], the IC50 under setting [4] is 398 nM. For the compound `COc1cccc(Cn2c(-c3ccc(CC(N)=O)cc3Cl)nc3c(OC4(C)CC4)ncnc32)c1` [Example T105, 2-(3-chloro-4-(9-(3-methoxybenzyl)-6-(1-methylcyclopropoxy)-9H-purin-8-yl)phenyl)acetamide], under setting [3], the IC50 is 631 nM. Take `C#CCNC(=O)COc1ccc(-c2nc3c(OC4(C)CC4)ncnc3n2Cc2cc(C)ccn2)c(Cl)c1` [Example T266, 2-(3-chloro-4-(6-(1-methylcyclopropoxy)-9-((4-methylpyridin-2-yl)methyl)-9H-purin-8-yl)phenoxy)-N-(prop-2-yn-1-yl)acetamide]: the IC50 under setting [6] was 158 nM. As to `CC(CCOc1ccc(-c2nc3c(OC4(C)CC4)ncnc3n2Cc2cccc(C3CC3)c2)c(Cl)c1)C(=O)O` (racemic) [Example T601, 4-(3-chloro-4-(9-(3-cyclopropylbenzyl)-6-(1-methylcyclopropoxy)-9H-purin-8-yl)phenoxy)-2-methylbutanoic acid], for the setting “DLD-1, first proliferation column, DLD-1 BRCA2-/-, read-out: POLQ PD Prolif Lumin (converted)”, the IC50 is 794 nM. `CC1(Oc2ncnc3c2nc(-c2ccc(O[C@H]4CC[C@@H](C(=O)O)CC4)cc2Cl)n3Cc2ccccc2C#N)CC1` [Example U16, (1s,4s)-4-(3-chloro-4-(9-(2-cyanobenzyl)-6-(1-methylcyclopropoxy)-9H-purin-8-yl)phenoxy)cyclohexane-1-carboxylic acid]: the “POLQ PD Prolif Lumin BRCA2 −/− mean pIC50” value (mean) is reported as 6.4. Take `Cc1ccnc(Cn2c(-c3ccc(OCC(=O)N(C)C4COC4)cc3Cl)nc3c(OC4(C)CC4)ncnc32)c1` [Example T480, 2-(3-chloro-4-(6-(1-methylcyclopropoxy)-9-((4-methylpyridin-2-yl)methyl)-9H-purin-8-yl)phenoxy)-N-methyl-N-(oxetan-3-yl)acetamide]: under setting [5], the IC50 is 501 nM.

In the case of `CC1(Oc2ncnc3c2nc(-c2ccc(OCCN4CCN[C@@H](CC#N)C4)cc2Cl)n3Cc2ccccc2)CC1` [Example R23, (S)-2-(4-(2-(4-(9-benzyl-6-(1-methylcyclopropoxy)-9H-purin-8-yl)-3-chlorophenoxy)ethyl)piperazin-2-yl)acetonitrile], the IC50 (DLD-1, 288 h, DLD-1 BRCA2−/− cells, 12 days, read-out: POLQ PD Prolif Lumin BRCA2 −/− mean pIC50 (converted)) was 63.1 nM.

For the compound `C[C@H](Oc1cccc(-c2nc3c(OC4(C)CC4)ncnc3n2Cc2cccc(Cl)c2)c1Cl)C(=O)O` [Example T90, (S)-2-(2-chloro-3-(9-(3-chlorobenzyl)-6-(1-methylcyclopropoxy)-9H-purin-8-yl)phenoxy)propanoic acid], the IC50 under setting [2] was 2000 nM. For the compound `Cc1ccnc(Cn2c(-c3ccc(C(=O)N4CC[C@H](F)C4)cc3Cl)nc3c(OC4(C)CC4)ncnc32)c1` [Example T281, (S)-(3-chloro-4-(6-(1-methylcyclopropoxy)-9-((4-methylpyridin-2-yl)methyl)-9H-purin-8-yl)phenyl)(3-fluoropyrrolidin-1-yl)methanone], under setting [6], the IC50 was 794 nM. As for `Cc1ccnc(Cn2c(-c3ccc(C(=O)NC4(C)COC4)cc3Cl)nc3c(OC4(C)CC4)ncnc32)c1` [Example T317, 3-chloro-4-(6-(1-methylcyclopropoxy)-9-((4-methylpyridin-2-yl)methyl)-9H-purin-8-yl)-N-(3-methyloxetan-3-yl)benzamide], the IC50 under setting [1] was 1000 nM.

For `Cc1ccnc(Cn2c(-c3ccc(N)cc3Cl)nc3c(OC4(C)CC4)ncnc32)c1` [Example T3, 3-chloro-4-(6-(1-methylcyclopropoxy)-9-((4-methylpyridin-2-yl)methyl)-9H-purin-8-yl)aniline], the IC50 under setting [2] was 200 nM.

As to `Cc1ccnc(Cn2c(-c3ccc(CC(=O)N4CC[C@@H](O)C4)cc3Cl)nc3c(OC4(C)CC4)ncnc32)c1` [Example T458, (R)-2-(3-chloro-4-(6-(1-methylcyclopropoxy)-9-((4-methylpyridin-2-yl)methyl)-9H-purin-8-yl)phenyl)-1-(3-hydroxypyrrolidin-1-yl)ethan-1-one], under setting [5], the IC50 is 631 nM.

On to `CC1(Oc2ncnc3c2nc(-c2c(F)ccc(OCCC(=O)O)c2Cl)n3Cc2cccc(Cl)c2)CC1` [Example U66, 3-(2-chloro-3-(9-(3-chlorobenzyl)-6-(1-methylcyclopropoxy)-9H-purin-8-yl)-4-fluorophenoxy)propanoic acid], for which the IC50 under setting [4] is 200 nM. Take `Cc1ccnc(Cn2c(-c3ccc(OCC(=O)N(C)CCC#N)cc3Cl)nc3c(OC4(C)CC4)ncnc32)c1` [Example T430, 2-(3-chloro-4-(6-(1-methylcyclopropoxy)-9-((4-methylpyridin-2-yl)methyl)-9H-purin-8-yl)phenoxy)-N-(2-cyanoethyl)-N-methylacetamide]: under setting [5], the IC50 was 501 nM.
